In US12281122B1, “PI3K inhibitors” (Cogent Biosciences, Inc., priority 2023, dated 2025):
pIC50: −log10 of the molar value.

Tests used:
[1] = test system: T47D (PI3Kα-H1047R) cell line; assay: HTRF phospho-AKT(S473) cell assay in T47D cells; assay type: cell-based, human; conditions: Homo sapiens, 2 hours compound incubation
Procedure, shortened: (§1)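 T47D (PI3Kα-H1047R; RPMI, 10% FBS, insulin) and SKBR3 (wild-type PI3Kα; McCoy's 5A, 10% FBS) cells treated 2 h at 37 °C with 12-point 1:3 dilutions, top 5 μM and 10 μM respectively, ≤0.5% DMSO. SKBR3 stimulated with 70 ng/ml PDGF-BB for the last 15 min; lysate pAKT(S473) by HTRF, IC50 from curves.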

[2] = test system: SKBR3 (PI3Kα-Wild Type) cell line; assay: HTRF phospho-AKT(S473) cell assay in SKBR3 cells; assay type: cell-based, human; conditions: Homo sapiens, SK-BR-3, 2 hours compound incubation, PDGF-BB stimulated
Procedure, shortened: as §1

[3] = HTRF phospho-AKT(S473), T47D (PI3Kα-H1047R) cells
[4] = HTRF phospho-AKT(S473), SKBR3 (PI3Kα-Wild Type) cells
[5] = T47D (PI3Kα-H1047R) cells, HTRF phospho-AKT(S473)
[6] = SKBR3 (PI3Kα-Wild Type) cells, HTRF phospho-AKT(S473)

Row | pIC50 [1, 3] | pIC50 [2, 4] | SMILES | other results
1 | > 6.60 | 5.30 to 6.00 | COc1ncc(F)c(N2CCN(c3nc4c([C@@H](C)Nc5ccc(Cl)nc5C(=O)NS(C)(=O)=O)cc(C)cc4c(=O)n3C)CC2)n1 [Compound 720, (R)-6-chloro-3-((1-(2-(4-(5-fluoro-2-methoxypyrimidin-4-yl)piperazin-1-yl)-3,6-dimethyl-4-oxo-3,4-dihydroquinazolin-8-yl)ethyl)amino)-N-(methylsulfonyl) picolinamide] | 
2 | > 6.60 | 5.30 to 6.00 | Cc1cc([C@@H](C)Nc2ccc(Cl)nc2C(=O)NS(C)(=O)=O)c2nc(-c3ccc4c(cnn4CC(F)(F)F)c3)n(C)c(=O)c2c1 [Compound 783, (R)-6-chloro-3-((1-(3,6-dimethyl-4-oxo-2-(1-(2,2,2-trifluoroethyl)-1H-indazol-5-yl)-3,4-dihydroquinazolin-8-yl)ethyl)amino)-N-(methylsulfonyl) picolinamide] | 
3 | 6.30 to 6.60 | ≤ 5.30 | Cc1cc([C@@H](C)Nc2ccc(Cl)nc2C(=O)NS(C)(=O)=O)c2nc(N3C[C@@H]4[C@H](C3)[C@H]4c3cnc(C)nc3)n(C3CC3)c(=O)c2c1 [Compound 606, 6-chloro-3-(((R)-1-(3-cyclopropyl-6-methyl-2-((1R,5S,6S)-6-(2-methylpyrimidin-5-yl)-3-azabicyclo[3.1.0]hexan-3-yl)-4-oxo-3,4-dihydroquinazolin-8-yl)ethyl)amino)-N-(methylsulfonyl) picolinamide] | 
4 | 6.30 to 6.60 | 5.30 to 6.00 | Cc1cc([C@@H](C)Nc2ccc(Cl)nc2C(=O)NS(C)(=O)=O)c2nc(N3CCC(c4nc(C)n(C(F)F)n4)CC3)n(C)c(=O)c2c1 [Compound 723, (R)-6-chloro-3-((1-(2-(4-(1-(difluoromethyl)-5-methyl-1H-1,2,4-triazol-3-yl)piperidin-1-yl)-3,6-dimethyl-4-oxo-3,4-dihydroquinazolin-8-yl)ethyl)amino)-N-(methylsulfonyl) picolinamide] | 
5 | 6.30 to 6.60 | 5.30 to 6.00 | Cc1cc([C@@H](C)Nc2ccc(Cl)nc2C(=O)NS(C)(=O)=O)c2nc(N3C[C@@H]4C(c5ccnc(C)c5F)[C@@H]4C3)n(C)c(=O)c2c1 (stereo partly drawn) [Compound 763, 6-chloro-3-(((1R)-1-(2-((1R,5S)-6-(3-fluoro-2-methylpyridin-4-yl)-3-azabicyclo[3.1.0]hexan-3-yl)-3,6-dimethyl-4-oxo-3,4-dihydroquinazolin-8-yl)ethyl)amino)-N-(methylsulfonyl) picolinamide] | 
6 | 6.30 to 6.60 | 5.30 to 6.00 | Cc1cc([C@@H](C)Nc2ccc(Cl)nc2C(=O)NS(C)(=O)=O)c2nc(N3CCC(c4ncc(C)o4)CC3)n(C)c(=O)c2c1 [Compound 728, (R)-6-chloro-3-((1-(3,6-dimethyl-2-(4-(5-methyloxazol-2-yl)piperidin-1-yl)-4-oxo-3,4-dihydroquinazolin-8-yl)ethyl)amino)-N-(methylsulfonyl) picolinamide] | 
7 | > 6.60 | 5.30 to 6.00 | Cc1cc([C@@H](C)Nc2ccc(Cl)nc2C(=O)NS(C)(=O)=O)c2nc(-c3ccc4nn(C)cc4c3)n(C)c(=O)c2c1 [Compound 775, (R)-6-chloro-3-((1-(3,6-dimethyl-2-(2-methyl-2H-indazol-5-yl)-4-oxo-3,4-dihydroquinazolin-8-yl)ethyl)amino)-N-(methylsulfonyl) picolinamide] | 
8 | > 6.60 | 5.30 to 6.00 | Cc1cc([C@@H](C)Nc2ccc(Cl)nc2C(=O)NS(C)(=O)=O)c2nc(-c3ccc4nc(C)oc4c3)n(C)c(=O)c2c1 [Compound 789, (R)-6-chloro-3-((1-(3,6-dimethyl-2-(2-methylbenzo[d]oxazol-6-yl)-4-oxo-3,4-dihydroquinazolin-8-yl)ethyl)amino)-N-(methylsulfonyl) picolinamide] | 

Continued, molecule first:

Row | SMILES | pIC50 [1, 3] | pIC50 [2, 4] | other results
9 | Cc1cc([C@@H](C)Nc2ccc(Cl)nc2C(=O)NS(C)(=O)=O)c2nc(N3C[C@H]4C[C@@H]3CN4c3ccccn3)n(C)c(=O)c2c1 [Compound 603, 6-chloro-3-(((R)-1-(3,6-dimethyl-4-oxo-2-((1R,4R)-5-(pyridin-2-yl)-2,5-diazabicyclo [2.2.1]heptan-2-yl)-3,4-dihydroquinazolin-8-yl)ethyl)amino)-N-(methylsulfonyl) picolinamide] | 6.00 to 6.30 | ≤ 5.30 | 
10 | Cc1cc([C@@H](C)Nc2ccc(Cl)nc2C(=O)NS(C)(=O)=O)c2nc(N3Cc4cn([C@@H](C)C(F)(F)F)nc4C3)n(C)c(=O)c2c1 (relative stereo) [Compound 222, 6-chloro-3-(((R)-1-(3,6-dimethyl-4-oxo-2-(2-((R*)-1,1,1-trifluoropropan-2-yl)-2,6-dihydropyrrolo[3,4-c]pyrazol-5(4H)-yl)-3,4-dihydroquinazolin-8-yl)ethyl)amino)-N-(methylsulfonyl) picolinamide] |  |  | pIC50 [1, 5]: > 6.60; pIC50 [2, 6]: 5.30 to 6.00
11 | Cc1cc([C@@H](C)Nc2ccc(Cl)nc2C(=O)NS(C)(=O)=O)c2nc(N3CC[C@@H](Oc4cccnc4)C3)n(C)c(=O)c2c1 [Compound 345, 6-chloro-3-(((R)-1-(3,6-dimethyl-4-oxo-2-((R)-3-(pyridin-3-yloxy)pyrrolidin-1-yl)-3,4-dihydroquinazolin-8-yl)ethyl)amino)-N-(methylsulfonyl) picolinamide] |  |  | pIC50 [1, 5]: > 6.60; pIC50 [2, 6]: 5.30 to 6.00
12 | Cc1cc([C@@H](C)Nc2ccc(Cl)nc2C(=O)NS(C)(=O)=O)c2nc(N3CCc4c(cnn4-c4ccccc4)C3)n(C)c(=O)c2c1 [Compound 195, (R)-6-chloro-3-((1-(3,6-dimethyl-4-oxo-2-(1-phenyl-1,4,6,7-tetrahydro-5H-pyrazolo[4,3-c]pyridin-5-yl)-3,4-dihydroquinazolin-8-yl)ethyl)amino)-N-(methylsulfonyl) picolinamide] |  |  | pIC50 [1, 5]: > 6.60; pIC50 [2, 6]: 5.30 to 6.00
13 | Cc1cc([C@@H](C)Nc2ccc(Cl)nc2C(=O)NS(C)(=O)=O)c2nc(N3C[C@H]4C[C@@H]3CN4c3cnc(C)nc3)n(C)c(=O)c2c1 [Compound 592, 6-chloro-3-(((R)-1-(3,6-dimethyl-2-((1R,4R)-5-(2-methylpyrimidin-5-yl)-2,5-diazabicyclo [2.2.1]heptan-2-yl)-4-oxo-3,4-dihydroquinazolin-8-yl)ethyl)amino)-N-(methylsulfonyl) picolinamide] | 6.00 to 6.30 | ≤ 5.30 | 
14 | Cc1cnc(N2CCN(c3nc4c([C@@H](C)Nc5ccc(Cl)nc5C(=O)NS(C)(=O)=O)cc(C)cc4c(=O)n3C)CC2)nc1 [Compound 532, (R)-6-chloro-3-((1-(3,6-dimethyl-2-(4-(5-methylpyrimidin-2-yl)piperazin-1-yl)-4-oxo-3,4-dihydroquinazolin-8-yl)ethyl)amino)-N-(methylsulfonyl) picolinamide] | 6.30 to 6.60 | ≤ 5.30 | 
15 | Cc1cc([C@@H](C)Nc2ccc(Cl)nc2C(=O)NS(C)(=O)=O)c2nc(N3CC[C@@H](Oc4ccc(F)cc4)C3)n(C)c(=O)c2c1 (relative stereo) [Compound 236, 6-chloro-3-(((R)-1-(2-((R*)-3-(4-fluorophenoxy)pyrrolidin-1-yl)-3,6-dimethyl-4-oxo-3,4-dihydroquinazolin-8-yl)ethyl)amino)-N-(methylsulfonyl) picolinamide] |  |  | pIC50 [1, 5]: 6.30 to 6.60; pIC50 [2, 6]: 5.30 to 6.00
16 | C[C@@H](Nc1ccc(Cl)nc1C(=O)NS(C)(=O)=O)c1cc(C2CC2)cc2c(=O)n(C)c(N3CCC(c4nn(C)cc4F)CC3)nc12 [Compound 397, (R)-6-chloro-3-((1-(6-cyclopropyl-2-(4-(4-fluoro-1-methyl-1H-pyrazol-3-yl)piperidin-1-yl)-3-methyl-4-oxo-3,4-dihydroquinazolin-8-yl)ethyl)amino)-N-(methylsulfonyl) picolinamide] |  |  | pIC50 [1, 5]: 6.30 to 6.60; pIC50 [2, 6]: ≤ 5.30
17 | COc1cc([C@H]2[C@@H]3CN(c4nc5c([C@@H](C)Nc6ccc(Cl)nc6C(=O)NS(C)(=O)=O)cc(C)cc5c(=O)n4C)C[C@@H]32)ccn1 [Compound 474, 6-chloro-3-(((R)-1-(2-((1R,5S,6S)-6-(2-methoxypyridin-4-yl)-3-azabicyclo[3.1.0]hexan-3-yl)-3,6-dimethyl-4-oxo-3,4-dihydroquinazolin-8-yl)ethyl)amino)-N-(methylsulfonyl) picolinamide] | 6.30 to 6.60 | ≤ 5.30 | 
18 | Cc1cc([C@@H](C)Nc2ccc(Cl)nc2C(=O)NS(C)(=O)=O)c2nc(-c3ccc4nn(C)cc4c3)n(C3CC3)c(=O)c2c1 [Compound 847, (R)-6-chloro-3-((1-(3-cyclopropyl-6-methyl-2-(2-methyl-2H-indazol-5-yl)-4-oxo-3,4-dihydroquinazolin-8-yl)ethyl)amino)-N-(methylsulfonyl) picolinamide] |  |  | pIC50 ([1]; T47D (PI3Kα-H1047R) cell line, phospho-AKT(S473) HTRF): > 6.60; pIC50 ([2]; SKBR3 (PI3Kα-Wild Type) cell line, phospho-AKT(S473) HTRF): 5.30 to 6.00
19 | Cc1cc([C@@H](C)Nc2ccc(Cl)nc2C(=O)NS(C)(=O)=O)c2nc(N3C[C@@H]4[C@H](C3)[C@H]4c3cc(C4CC4)[nH]n3)n(C)c(=O)c2c1 [Compound 524, 6-chloro-3-(((R)-1-(2-((1R,5S,6R)-6-(5-cyclopropyl-1H-pyrazol-3-yl)-3-azabicyclo[3.1.0]hexan-3-yl)-3,6-dimethyl-4-oxo-3,4-dihydroquinazolin-8-yl)ethyl)amino)-N-(methylsulfonyl) picolinamide] | > 6.60 | 5.30 to 6.00 | 
